Assay results: US9636409B2, “Enzyme and receptor modulation using covalent conjugates of alpha,alpha-disubstituted glycine esters” (GlaxoSmithKline Intellectual Property Development Limited, priority 2008, dated 2017)
Where two headings read alike, the source gives them in different places.

Assays:
[1] = system: phosphorylation of MAPKAP-2 in U937 cells; assay: p38 MAP Kinase cellular assay: inhibition of phosphorylation of MAPKAP2 in U937 cells; type: cell-based; settings: for IC50: Homo sapiens, U-937
Description: (§1) p38 MAP Kinase Cellular Assay: Inhibition of Phosphorylation of MAPKAP2
(§2) U937 or HUT78 cells were plated in RPMI 1640, and were incubated at 37° C., 5% CO2 for 18 hours. 10 mM stocks of compounds were diluted media/0.1% DMSO to give a log or semi-log dilution series. The wells for ‘no treatment’ and ‘anisomycin’ were treated with 0.1% DMSO only. The cells were incubated at 37° C., 5% CO2 for a further 4 hours. Anisomycin was added to all wells except ‘no treatment’ at a final concentration of 10 μM. The cells were incubated at 37° C., 5% CO2 for 30 minutes before harvest. Plates were stood on ice whilst harvesting, and all following steps were carried out at 4° C. The cells were pelleted at 1000 rpm for 10 minutes at 4° C., the media aspirated, and the pellet washed with cold PBS. The pellets were lysed in 120 μl of SDS lysis buffer (62.5 mM Tris, pH 6.8, 2% SDS, 10% glycerol, 50 mM DTT, with protease inhibitors and phosphatase inhibitors added according to the manufacturers' recommendations). After 30 minutes on ice, the samples were sonicated for 5 seconds before centrifugation at 13,000 rpm 4° C. for 10 minutes to remove cell debris. 10 μl of the resulting gel samples were loaded per lane on NOVEX 4-12% Bis-Tris MOPS gels. Membranes from western transfer of gels were blotted with anti-phospho MAPKAP2, anti-phospho HSP27 and anti GAPDH according to the manufacturers' Instructions. Signal was visualised using HRP-Hnked anti-rabbit or anti-mouse antibodies, ECL reagent and ECL film. IC50 values for the various compounds were visualised from the resulting photographic images, using both band-shift and signal intensity.

p38 MAP Kinase α = target: T1, p38 MAP Kinase α (Homo sapiens, UniProt Q16539); assay: p38 MAP Kinase enzyme assay; type: biochemical; settings: Table 1 (biology); compound as such, Ester for Example 1; read-out: Inhibition of P38 (IC50 nM)
T1 construct: purchased Upstate (Dundee UK)
T1 sequence (Q16539 whole entry): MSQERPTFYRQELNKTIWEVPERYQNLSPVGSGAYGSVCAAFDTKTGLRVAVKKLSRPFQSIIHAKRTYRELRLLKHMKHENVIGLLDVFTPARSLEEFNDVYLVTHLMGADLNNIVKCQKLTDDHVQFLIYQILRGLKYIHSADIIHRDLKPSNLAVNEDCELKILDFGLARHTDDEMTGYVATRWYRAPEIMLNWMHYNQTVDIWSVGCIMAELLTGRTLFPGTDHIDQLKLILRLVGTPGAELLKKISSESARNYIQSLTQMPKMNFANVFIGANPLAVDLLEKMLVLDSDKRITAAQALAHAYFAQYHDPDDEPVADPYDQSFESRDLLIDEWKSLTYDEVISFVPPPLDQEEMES
Description: p38 MAP Kinase Enzyme Assay
The ability of compounds to inhibit p38 MAPα Kinase activity was measured in an assay performed by Upstate (Dundee UK). In a final reaction volume of 25 μL, p38 MAP Kinase α (5-10 mU) is incubated with 25 mM Tris pH 7.5, 0.02 mM EGTA, 0.33 mg/mL myelin basic protein, 10 mM MgAcetate and [γ-^33P-ATP](specific activity approx. 500 cpm/pmol, concentration as required). The reaction is initiated by the addition of the MgATP mix. After incubation for 40 minutes at room temperature, the reaction is stopped by the addition of 5 μL of a 3% phosphoric acid solution. 10 μL of the reaction is then spotted onto a P30 filtermat and washed three times for 5 minutes in 75 mM phosphoric acid and once in methanol prior to drying and scintillation counting.
Duplicate data points are generated from a 1/3 log dilution series of a stock solution in DMSO. Nine dilutions steps are made from a top concentration of […], and a ‘no compound’ blank is included. The standard radiometric filter-binding assay is performed at an ATP concentration at, or close to, the Km. Data from scintillation counts are collected and subjected to free-fit analysis by Prism software. From the curve generated, the concentration giving 50% inhibition is determined and reported.

[2] = system: phosphorylation of MAPKAP-2 in HUT 78 cells; assay: p38 MAP Kinase cellular assay: inhibition of phosphorylation of MAPKAP2 in HUT 78 cells; type: cell-based; settings: for IC50: Homo sapiens, HuT78, HUT 78 non-monocyte cell line; for Ratio IC50s in HUT 78 to U937 cells: MAPKAP-2 phosphorylation IC50s
Description: as §1, §2

HUT 78 cells = assay: HUT cell inhibition assay (WST-1 proliferation); type: cell-based; settings: Table 5
Description: (§3) U937 and HUT Cell Inhibition Assay
(§4) Cancer cell lines (U937 and HUT) growing in log phase were harvested and seeded at 1000-2000 cells/well (100 μl final volume) into 96-well tissue culture plates. Following 24 hours of growth cells were treated with compound. Plates were then re-Incubated for a further 72-96 hours before a WST-1 cell viability assay was conducted according to the suppliers (Roche Applied Science) instructions.
(§5) Data were expressed as a percentage inhibition of the control, measured in the absence of Inhibitor, as follows: % inhibition=100−[(S^i/S^o)×100] where S^i is the signal in the presence of Inhibitor and S^o s the signal in the presence of DMSO.
(§6) Dose response curves were generated from 8 concentrations (top final concentration 10 μM, with 3-fold dilutions), using 6 replicates.
(§7) IC50 values were determined by non-linear regression analysis, after fitting the results to the equation for sigmoidal dose response with variable slope (% activity against log concentration of compound), using Graphpad Prism software.

U937 cells = assay: U937 cell inhibition assay (WST-1 proliferation); type: cell-based
Description: as §3, §4, §5, §6, §7

[3] = target: histone deacetylase activity (HeLa nuclear extract); assay: Histone deacetylase activity (Fluor de Lys, HeLa nuclear extract); type: biochemical; settings: compound as such, Ester for Examples 7 and 9, read-out: Inhibition of HDAC (IC50 nM)
Description: Histone Deacetylase Activity
The ability of compounds to inhibit histone deacetylase activities was measured using the commercially available HDAC fluorescent activity assay from Biomol. In brief, the Fluor de Lys™ substrate, a lysine with an epsilon-amino acetylation, is incubated with the source of histone deacetylase activity (HeLa nuclear extract) in the presence or absence of inhibitor. Deacetylation of the substrate sensitises the substrate to Fluor de Lys™ developer, which generates a fluorophore. Thus, incubation of the substrate with a source of HDAC activity results in an increase in signal that is diminished in the presence of an HDAC inhibitor.
Data are expressed as a percentage of the control, measured in the absence of inhibitor, with background signal being subtracted from all samples, as follows: % activity=[(S^i−B)/(S^o−B)]×100 where S^i is the signal in the presence of substrate, enzyme and Inhibitor, S^o is the signal in the presence of substrate, enzyme and the vehicle in which the inhibitor is dissolved, and B is the background signal measured in the absence of enzyme.
IC50 values were determined by non-linear regression analysis, after fitting the results of eight data points to the equation for sigmoidal dose response with variable slope (% activity against log concentration of Compound), using Graphpad Prism software.
Histone deacetylase activity from crude nuclear extract derived from HeLa cells was used for screening. The preparation, purchased from 4C (Seneffe, Belgium), was prepared from HeLa cells harvested whilst in exponential growth phase. The nuclear extract was prepared according to the methodology described by J. D. Dignam, Nucl. Acid. Res., 1983, 11, 1475-1489, snap frozen in liquid nitrogen and stored at −80° C. The final buffer composition was 20 mM Hepes, 100 mM KCl, 0.2 mM EDTA, 0.5 mM DTT, 0.2 mM PMSF and 20% (v/v) glycerol.

[4] = Table 3, U937 monocyte cell line, read-out: Inhibition of phosphorylation of MAPKAP-2 in U937 cells (IC50, nM) (monocyte cell line)

Which results are given for `Nc1c(C(=O)c2ccc(F)cc2F)ccc(=O)n1-c1ccccc1` [Compound I, reference compound]?
IC50 ([1]; Table 1 (biology), U937 cells, read-out: Inhibition of phosphorylation of MAPKAP-2 in U937 cells (IC50)): 300 nM; IC50 ([1]; Table 2, U937 monocyte cell line, read-out: Inhibition of phosphorylation of MAPKAP-2 in U937 cells (IC50, nM) (monocyte cell line)): 300 nM; Ratio cell IC50s to enzyme IC50 ([1]; U937 MAPKAP-2 IC50 to P38 enzyme IC50): 6; potency in monocytic versus non monocytic cell lines (MAPKAP-2 phosphorylation) ([1]; U937 versus HUT 78): equipotent; IC50 (p38 MAP Kinase α): 50 nM; IC50 ([2]; Table 2): 450 nM; Ratio IC50s in HUT 78 to U937 cells ([2]; Table 2): 1.5

With `CC(N)(CCCOc1cc(F)c(-n2c(N)c(C(=O)c3ccc(F)cc3F)ccc2=O)c(F)c1)C(=O)OC1CCCC1` (stereo not drawn) [Example 5] as the molecule, how does the IC50 [1, 4] read?
The IC50 was 5 nM.

What about the “macrophage selectivity (MAPKAP-2 phosphorylation, U937 versus HUT 78)” value ([1]; result in words) of the same molecule?
The value was “macrophage selective”.

What about the IC50 ([2]; Table 3) of the same molecule?
Its IC50 is 100 nM.

And the “Ratio IC50s in HUT 78 to U937 cells” value ([2]; Table 3)?
The value was 20.

What does the source list for `Nc1c(C(=O)c2ccc(F)cc2F)ccc(=O)n1-c1c(F)cc(OCCC[C@H](N)C(=O)OC2CCCC2)cc1F` [Compund III, reference compound]?
IC50 [1, 4]: 1 nM; IC50 ([2]; Table 3): 1 nM; Ratio IC50s in HUT 78 to U937 cells ([2]; Table 3): 1

How did the inhibition at 10 µM (HUT 78 cells; Homo sapiens, HuT78, @ 10 μM) turn out when `O=C(CCc1ccccc1)NO` [Compound IV, N-Hydroxy-3-phenyl-propionamide, reference compound] was run?
Its inhibition at 10 µM is 10%.

And the “Ratio IC50s in HUT 78 to U937 cells” value (HUT 78 cells; proliferation IC50s)?
Its value is ~1.

And the inhibition at 10 µM (U937 cells; Homo sapiens, U-937, Table 4, @ 10 μM)?
Its inhibition at 10 µM is 13%.

What about the “Ratio cell IC50s to enzyme IC50” value (U937 cells; Table 4, U937 proliferation IC50 to HDAC enzyme IC50) of the same molecule?
The value was >3.85.

And the “Inhibition of proliferation in U937 cells” value (U937 cells; Table 5, @ 10 μM)?
Its value is 13% @ 10 μM.

What about the IC50 ([3]; Table 4) of the same molecule?
The IC50 was 2600 nM.

And the IC50 ([3]; Table 5)?
Its IC50 is 2600 nM.
